Data from ChEMBL document CHEMBL1833855, “A facile synthesis of carbocycle-fused mono and bis-1,2,3-selenadiazoles and their antimicrobial and antimycobacterial studies” (2011).
In brackets after ≈: the same amount, converted by molar mass.

How the values were obtained:
[1] = system: Candida albicans; assay: Antifungal activity against Candida albicans ATCC 90028 after 18 to 24 hrs by NCCLS M7-A5 based agar dilution method; assay type: functional
[2] = system: Staphylococcus aureus; assay: Antibacterial activity against Staphylococcus aureus ATCC 11632 assessed as zone of inhibition at 100 ug/disc after 24 hrs by agar disc diffusion method; assay type: functional; conditions: ATCC 11632, 24 h, read-out: DIZ
[3] = system: Escherichia coli; assay: Antibacterial activity against Escherichia coli ATCC 25922 after 18 to 24 hrs by NCCLS M7-A5 based agar dilution method; assay type: functional
[4] = system: Mycobacterium tuberculosis; assay: Antituberculosis activity against 10^7 cfu/mL Mycobacterium tuberculosis H37Rv after 28 days; assay type: functional; conditions: 672 h
[5] = system: Staphylococcus aureus; assay: Antibacterial activity against Staphylococcus aureus ATCC 11632 after 18 to 24 hrs by NCCLS M7-A5 based agar dilution method; assay type: functional
[6] = system: Escherichia coli; assay: Antibacterial activity against Escherichia coli ATCC 25922 assessed as zone of inhibition at 100 ug/disc after 24 hrs by agar disc diffusion method; assay type: functional; conditions: ATCC 25922, 24 h, read-out: DIZ
[7] = system: Candida albicans; assay: Antifungal activity against Candida albicans ATCC 90028 assessed as zone of inhibition at 100 ug/disc after 48 hrs by agar disc diffusion method; assay type: functional; conditions: ATCC 90028, 48 h, read-out: DIZ
[8] = system: Staphylococcus aureus; assay: microbe, parasite or virus in culture; conditions: ATCC 11632, 24 h, read-out: DIZ
Description: Antibacterial activity against Staphylococcus aureus ATCC 11632 assessed as zone of inhibition at 10 ug/disc after 24 hrs by agar disc diffusion method

[9] = system: Escherichia coli; assay: microbe, parasite or virus in culture; conditions: ATCC 25922, 24 h, read-out: DIZ
Description: Antibacterial activity against Escherichia coli ATCC 25922 assessed as zone of inhibition at 10 ug/disc after 24 hrs by agar disc diffusion method

[10] = system: Candida albicans; assay: Antifungal activity against Candida albicans ATCC 90028 assessed as zone of inhibition at 10 ug/disc after 48 hrs by agar disc diffusion method; assay type: functional; conditions: ATCC 90028, 48 h, read-out: DIZ

Row | SMILES | MIC [1] [µg/mL] | zone of inhibition at 100 µg/disc [2] [mm] | MIC [3] [µg/mL] | MIC [4] [µM] | MIC [5] [µg/mL] | zone of inhibition at 100 µg/disc [6] [mm] | zone of inhibition at 100 µg/disc [7] [mm] | zone of inhibition at 10 µg/disc [8] [mm] | zone of inhibition at 10 µg/disc [9] [mm] | zone of inhibition at 10 µg/disc [10] [mm]
1 | O=C(C[C@@H](c1ccccc1)[C@@H]1CCCc2[se]nnc21)c1ccccc1 | 25 (≈ 63.2 µM) | 15 | 12.5 (≈ 31.6 µM) | 15.8 (≈ 6.25 µg/mL) | 12.5 (≈ 31.6 µM) | 18 | 15 | – | – | –
2 | O=C(C[C@@H](c1ccccc1)[C@@H]1CCCc2[se]nnc21)c1ccc(Cl)cc1 | 12.5 (≈ 29.1 µM) | 15 | 25 (≈ 58.2 µM) | 7.2 (≈ 3.09 µg/mL) | 12.5 (≈ 29.1 µM) | 10 | 15 | – | – | –
3 | COc1ccc(C(=O)C[C@@H](c2ccccc2)[C@@H]2CCCc3[se]nnc32)cc1 | 25 (≈ 58.8 µM) | 15 | 12.5 (≈ 29.4 µM) | 29.3 (≈ 12.5 µg/mL) | 25 (≈ 58.8 µM) | 12 | 15 | – | – | –
4 | O=C(C[C@@H](c1ccccc1)[C@@H]1CCCc2[se]nnc21)c1ccc2ccccc2c1 | 50 (≈ 112 µM) | 15 | 25 (≈ 56.1 µM) | 28 (≈ 12.5 µg/mL) | 25 (≈ 56.1 µM) | 10 | 10 | – | – | –
5 | Cc1ccc([C@H](CC(=O)c2ccccc2)[C@@H]2CCCc3[se]nnc32)cc1 | 25 (≈ 61.1 µM) | 15 | 25 (≈ 61.1 µM) | 15.2 (≈ 6.22 µg/mL) | 12.5 (≈ 30.5 µM) | < 10 | 13 | – | – | –
6 | O=C(C[C@@H](c1ccc(Cl)cc1)[C@@H]1CCCc2[se]nnc21)c1ccccc1 | 25 (≈ 58.2 µM) | 16 | 12.5 (≈ 29.1 µM) | 3.6 (≈ 1.55 µg/mL) | 12.5 (≈ 29.1 µM) | 18 | 15 | – | – | –
7 | Cc1ccc(C(=O)C[C@@H](c2ccc(Cl)cc2)[C@@H]2CCCc3[se]nnc32)cc1 | 12.5 (≈ 28.2 µM) | 18 | 12.5 (≈ 28.2 µM) | 3.5 (≈ 1.55 µg/mL) | 25 (≈ 56.3 µM) | 15 | 17 | – | – | –
8 | O=C(C[C@@H](c1ccc(Cl)cc1)[C@@H]1CCCc2[se]nnc21)c1ccc(Cl)cc1 | 12.5 (≈ 26.9 µM) | 20 | 6.25 (≈ 13.5 µM) | 3.3 (≈ 1.53 µg/mL) | 6.25 (≈ 13.5 µM) | 20 | 15 | – | – | –
9 | Cc1ccc(C(=O)C[C@@H](c2ccccc2)[C@@H]2CCCc3[se]nnc32)cc1 | 25 (≈ 61.1 µM) | 18 | 12.5 (≈ 30.5 µM) | – | 25 (≈ 61.1 µM) | 17 | 12 | – | – | –
10 | COc1ccc([C@H](CC(=O)c2ccccc2)[C@@H]2CCCc3[se]nnc32)cc1 | 50 (≈ 118 µM) | 18 | 25 (≈ 58.8 µM) | – | 25 (≈ 58.8 µM) | 15 | 12 | – | – | –
11 | COc1ccc(C(=O)C[C@@H](c2ccc(Cl)cc2)[C@@H]2CCCc3[se]nnc32)cc1 | 25 (≈ 54.4 µM) | 20 | 12.5 (≈ 27.2 µM) | – | 12.5 (≈ 27.2 µM) | 20 | 15 | – | – | –
12 | c1ccc(-c2nn[se]c2[C@@H](c2ccccc2)[C@@H]2CCCc3[se]nnc32)cc1 | 25 (≈ 51.6 µM) | 15 | 25 (≈ 51.6 µM) | 51.6 (≈ 25 µg/mL) | 25 (≈ 51.6 µM) | 12 | 15 | – | – | –
13 | Clc1ccc(-c2nn[se]c2[C@@H](c2ccccc2)[C@@H]2CCCc3[se]nnc32)cc1 | 25 (≈ 48.2 µM) | 10 | 25 (≈ 48.2 µM) | 48.2 (≈ 25 µg/mL) | 25 (≈ 48.2 µM) | 13 | 13 | – | – | –
14 | COc1ccc(-c2nn[se]c2[C@@H](c2ccccc2)[C@@H]2CCCc3[se]nnc32)cc1 | 50 (≈ 97.2 µM) | 12 | 25 (≈ 48.6 µM) | 48.6 (≈ 25 µg/mL) | 25 (≈ 48.6 µM) | 12 | 12 | – | – | –
15 | c1ccc([C@H](c2[se]nnc2-c2ccc3ccccc3c2)[C@@H]2CCCc3[se]nnc32)cc1 | 50 (≈ 93.6 µM) | 10 | 25 (≈ 46.8 µM) | 46.8 (≈ 25 µg/mL) | 50 (≈ 93.6 µM) | 10 | 10 | – | – | –
16 | Cc1ccc([C@H](c2[se]nnc2-c2ccccc2)[C@@H]2CCCc3[se]nnc32)cc1 | 50 (≈ 100 µM) | 16 | 25 (≈ 50.2 µM) | 50.2 (≈ 25 µg/mL) | 12.5 (≈ 25.1 µM) | 12 | 10 | – | – | –
17 | Clc1ccc([C@H](c2[se]nnc2-c2ccccc2)[C@@H]2CCCc3[se]nnc32)cc1 | 25 (≈ 48.2 µM) | 20 | 50 (≈ 96.4 µM) | 24.1 (≈ 12.5 µg/mL) | 25 (≈ 48.2 µM) | < 10 | 10 | – | – | –
18 | Cc1ccc(-c2nn[se]c2[C@@H](c2ccc(Cl)cc2)[C@@H]2CCCc3[se]nnc32)cc1 | 12.5 (≈ 23.5 µM) | 15 | 25 (≈ 46.9 µM) | 23.5 (≈ 12.5 µg/mL) | 25 (≈ 46.9 µM) | 15 | 15 | – | – | –
19 | Clc1ccc(-c2nn[se]c2[C@@H](c2ccc(Cl)cc2)[C@@H]2CCCc3[se]nnc32)cc1 | 12.5 (≈ 22.6 µM) | 15 | 12.5 (≈ 22.6 µM) | 22.5 (≈ 12.4 µg/mL) | 25 (≈ 45.2 µM) | 15 | 15 | – | – | –
20 | Cc1ccc(-c2nn[se]c2[C@@H](c2ccccc2)[C@@H]2CCCc3[se]nnc32)cc1 | 50 (≈ 100 µM) | < 10 | 25 (≈ 50.2 µM) | 50.2 (≈ 25 µg/mL) | 50 (≈ 100 µM) | 16 | 10 | – | – | –
21 | COc1ccc([C@H](c2[se]nnc2-c2ccccc2)[C@@H]2CCCc3[se]nnc32)cc1 | 50 (≈ 97.2 µM) | 15 | 50 (≈ 97.2 µM) | 48.6 (≈ 25 µg/mL) | 50 (≈ 97.2 µM) | 15 | < 10 | – | – | –
22 | COc1ccc(-c2nn[se]c2[C@@H](c2ccc(Cl)cc2)[C@@H]2CCCc3[se]nnc32)cc1 | 25 (≈ 45.6 µM) | 18 | 12.5 (≈ 22.8 µM) | 45.5 (≈ 25 µg/mL) | 25 (≈ 45.6 µM) | 18 | 15 | – | – | –
23 | O=C(O)c1cn(C2CC2)c2cc(N3CCNCC3)c(F)cc2c1=O [CIPROFLOXACIN] | – | – | – | – | – | – | – | 25 | 28 | –
24 | Clc1ccccc1C(c1ccccc1)(c1ccccc1)n1ccnc1 [CLOTRIMAZOLE] | 6.25 (≈ 18.1 µM) | – | – | – | – | – | – | – | – | 28
25 | CC[C@@H](CO)NCCN[C@@H](CC)CO [ETHAMBUTOL] | – | – | – | 7.6 (≈ 1.55 µg/mL) | – | – | – | – | – | –
26 | NNC(=O)c1ccncc1 [ISONIAZID] | – | – | – | 0.4 (≈ 0.0549 µg/mL) | – | – | – | – | – | –
27 | CO[C@H]1/C=C/O[C@@]2(C)Oc3c(C)c(O)c4c(O)c(c(/C=N/N5CCN(C)CC5)c(O)c4c3C2=O)NC(=O)/C(C)=C\C=C\[C@H](C)[C@H](O)[C@@H](C)[C@@H](O)[C@@H](C)[C@H](OC(C)=O)[C@@H]1C [RIFAMPIN] | – | – | – | 0.1 (≈ 0.0823 µg/mL) | – | – | – | – | – | –
